According to patent publication US12390444B2, “Stabilizing vitamin C topical formulations” (MF Beauty Partners LLC, priority 2020, dated 2025):
One block for each compound: values may come before it.

Tests used:
[1] = Solubility of optional additional components in non-aqueous solvents; format: physicochemical
Text: Additional ingredients were chosen for their compatibility with (e.g., miscibility in) 1,3 propanediol, 1,2 propanediol, and 1,3 butanediol.

[2] = most solvents; cited from earlier work
skin [3] = settings: 4% HQ versus 5% Vitamin C; cited from earlier work
skin [4] = settings: in vivo; cited from earlier work
[5] = Description: This example was reproduced.
All mixtures were heated to 85° C.

erythema (skin redness) = settings: concentrations of 0.2%; cited from earlier work

solubility of acetyl zingerone ([1]; 0.5-1%, 1,3 propanediol, 1,2 propanediol and 1,3 butanediol): readily soluble
Compound: COc1cc(CC(C(C)=O)C(C)=O)ccc1O [Acetyl zingerone]

concentration of AzA that can be solubilized ([1]; 1,3 propanediol): up to 10%
solubility of AzA in presence of hydroxyethyl urea ([1]; 1,3 propanediol): slightly increased
AzA solubilized together with AA and U ([1]; with 10% AA, 5% U in a 1,3 propanediol base): 7.5%
Compound: O=C(O)CCCCCCCC(=O)O [AzA, Azelaic acid]
solubility of AzA [2]: very poorly soluble

Compound: Oc1ccc(O)cc1 [HQ, hydroquinone]
improvement (skin [3]): 93%
side-effects (skin [3]): 68.7%

Compound: CC(C)(CO)[C@@H](O)C(=O)NCCCO [Panthenol]
concentration at which inhibition of transepidermal water loss is apparent (skin [4]): ≥ 1%

maximum concentrations soluble before urea starts to precipitate (the ceiling) ([5]; ascorbic acid together with urea in propylene glycol, butylene glycol and propanediol): 20%
Compound: NC(N)=O [U, urea]

degradation on heating [5]: showed signs of degradation
Compound: O=C1O[C@H]([C@@H](O)CO)C(O)=C1O [ascorbic acid, L-ascorbic acid]
improvement (skin [3]): 62.5%

solubility of glycyrrhizic acid ([1]; 1,3-propanediol): shows solubility
Compound: CC1(C)[C@@H](O[C@H]2O[C@H](C(=O)O)[C@@H](O)[C@H](O)[C@H]2O[C@@H]2O[C@H](C(=O)O)[C@@H](O)[C@H](O)[C@H]2O)CC[C@]2(C)[C@H]3C(=O)C=C4[C@@H]5C[C@@](C)(C(=O)O)CC[C@]5(C)CC[C@@]4(C)[C@]3(C)CC[C@@H]12 [glycyrrhizic acid, Glycyrrhizic acid]

solubility of madecassoside ([1]; concentration of 0.2%, 1,3 propanediol, 1,2 propanediol and 1,3 butanediol): soluble
Compound: Madecassoside
reduction of erythema (skin redness), clinical data (erythema (skin redness)): desirable ability to reduce erythema
